Laboratory results: the supplement of paper PMC10878532, “Sperm Toolbox—A selection of small molecules to study human spermatozoa” (PLOS ONE, 2024)
Counter-ions that a name gives are not always drawn.

What was measured:
human spermatozoa [1] = assay: viability fold change, 1 - (PI-positive fraction / DMSO median); higher = more of the measured sperm population than DMSO, for viability, fewer PI-positive (dead) cells than DMSO; settings: incubation time: 3h, non-capacitating
human spermatozoa [2] = assay: change in acrosome-reacted (PNA+) sperm vs DMSO, no agonist (capacitating); higher = more of the measured sperm population than DMSO, for viability, fewer PI-positive (dead) cells than DMSO; settings: incubation time: 3h
human spermatozoa [3] = assay: acrosome-reacted (PNA+) sperm after agonist cocktail, percent change vs DMSO (capacitating); higher = more of the measured sperm population than DMSO, for viability, fewer PI-positive (dead) cells than DMSO; settings: incubation time: 3h, capacitating + agonist cocktail 1h
human spermatozoa [4] = assay: hyperactivated motile sperm, percent change vs DMSO (capacitating); higher = more of the measured sperm population than DMSO, for viability, fewer PI-positive (dead) cells than DMSO; settings: incubation time: 30min incubation
HeLa [5] = assay: HeLa toxicity: nuclei-count effect normalised to DMSO (DMSO = 0); higher = more features changed / larger toxic effect; settings: incubation time: 24h incubation
human spermatozoa [6] = assay: progressively motile sperm, percent change vs DMSO (non-capacitating); higher = more of the measured sperm population than DMSO, for viability, fewer PI-positive (dead) cells than DMSO; extreme values may be limits of the assay
HeLa [7] = assay: Cell Painting percent induction (share of features beyond 2 z-scores vs DMSO); higher = more features changed / larger toxic effect; extreme values may be limits of the assay; settings: incubation time: 24h incubation
HepG2 = HepG2 toxicity (resazurin), effect normalised to DMSO (DMSO = 0); higher = more features changed / larger toxic effect; settings: incubation time: 70h incubation
human spermatozoa [8] = assay: progressively motile sperm, percent change vs DMSO (capacitating); higher = more of the measured sperm population than DMSO, for viability, fewer PI-positive (dead) cells than DMSO; settings: incubation time: 30min incubation
human spermatozoa [9] = assay: total motile sperm, percent change vs DMSO (non-capacitating); higher = more of the measured sperm population than DMSO, for viability, fewer PI-positive (dead) cells than DMSO
[10] = incubation time: 10min incubation, 9.99 µM
[11] = incubation time: 10min incubation, 29.9 µM
[12] = incubation time: 3h incubation, 9.99 µM
[13] = incubation time: 3h incubation, 29.9 µM
[14] = incubation time: 6h incubation, 9.99 µM
[15] = incubation time: 6h incubation, 29.9 µM
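For progressively motile sperm, percent change vs DMSO (non-capacitating) in this document: pooled live human sperm from at least 3 donors, tracked by automated microscopy in 0.5 s time-lapse movies, compounds at 10 and 30 µM, versus median of 16 DMSO wells per plate.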
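For total motile sperm, percent change vs DMSO (non-capacitating) in this document: sperm pooled from at least 3 donors, tracked in 0.5 s time-lapse movies by automated microscopy after 10 min, 3 h or 6 h with compound at 10 or 30 µM.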

| Compound | viability fold change (human spermatozoa [1]; 9.99 µM) | viability fold change (human spermatozoa [1]; 29.9 µM) | change in acrosome-reacted (human spermatozoa [2]; 9.99 µM) [%] | change in acrosome-reacted (human spermatozoa [2]; 29.9 µM) [%] | acrosome-reacted (human spermatozoa [3]; 9.99 µM) [%] | acrosome-reacted (human spermatozoa [3]; 29.9 µM) [%] | hyperactivated motile sperm (human spermatozoa [4]; 9.99 µM) [%] | hyperactivated motile sperm (human spermatozoa [4]; 29.9 µM) [%] | HeLa toxicity: nuclei-count effect normalised (HeLa [5]; 9.99 µM) [%] | HeLa toxicity: nuclei-count effect normalised (HeLa [5]; 29.9 µM) [%] | progressively motile sperm (human spermatozoa [6]; [10]) [%] | progressively motile sperm (human spermatozoa [6]; [11]) [%] | progressively motile sperm (human spermatozoa [6]; [12]) [%] | progressively motile sperm (human spermatozoa [6]; [13]) [%] | progressively motile sperm (human spermatozoa [6]; [14]) [%] | progressively motile sperm (human spermatozoa [6]; [15]) [%] | Cell Painting percent induction (HeLa [7]; 9.99 µM) [%] | Cell Painting percent induction (HeLa [7]; 29.9 µM) [%] | HepG2 toxicity (HepG2; 10 µM) [%] | HepG2 toxicity (HepG2; 30 µM) [%] | progressively motile sperm (human spermatozoa [8]; 9.99 µM) [%] | progressively motile sperm (human spermatozoa [8]; 29.9 µM) [%] | total motile sperm (human spermatozoa [9]; [10]) [%] | total motile sperm (human spermatozoa [9]; [11]) [%] | total motile sperm (human spermatozoa [9]; [12]) [%] | total motile sperm (human spermatozoa [9]; [13]) [%] | total motile sperm (human spermatozoa [9]; [14]) [%] | total motile sperm (human spermatozoa [9]; [15]) [%] |
| --- | --- | --- | --- | --- | --- | --- | --- | --- | --- | --- | --- | --- | --- | --- | --- | --- | --- | --- | --- | --- | --- | --- | --- | --- | --- | --- | --- | --- |
| CC(C)(O)c1ccn2c(-c3ccc(F)c(-c4ccc(F)cc4C#N)c3)cnc2c1F [TP 003] | -1.77 | -1.42 | 1.9 | 2.84 | 100 | 116 | 59.6 | -58 | 15.4 | 27.2 | 41.3 | 34.6 | 73.6 | 57.9 | 96 | 62.3 | 0.324 | 2.31 | 3.92 | 16.1 | 12.3 | 2.2 | 1.87 | -0.967 | -7.62 | -8.89 | -7.79 | -10.8 |
| C=CC[C@@H]1/C=C(\C)C[C@H](C)C[C@H](OC)[C@H]2O[C@@](O)(C(=O)C(=O)N3CCCC[C@H]3C(=O)O[C@H](/C(C)=C/[C@@H]3CC[C@@H](O)[C@H](OC)C3)[C@H](C)[C@@H](O)CC1=O)[C@H](C)C[C@@H]2OC [Tacrolimus] | -1.97 | -2.04 | 0.533 | 0.376 | -13.9 | -24 | -13.3 | -55.8 | -1.94 | 18.1 | 5.82 | 0.659 | -17.7 | -17.9 | -13.1 | -20.1 | 0 | 0.072 | -3.53 | 10.6 | 0.476 | -0.37 | 3.53 | 3.6 | -6.77 | -2.1 | -8.35 | -8.9 |
| COc1cc(C)c2c(Oc3cccc(C(F)(F)F)c3)c(OC)cc(NC(C)CCCN)c2n1 (centres undefined) [Tafenoquine] | -1.97 | -2.48 | 46.7 | 75 | 86.1 | 161 | -85.5 | -85.1 | 97.2 | 96.3 | -20.8 | -94.3 | -85.3 | -100 | -93.7 | -100 | 28.9 | 18 | 103 | 103 | -71.9 | -99.9 | -17.5 | -74.6 | -71.2 | -90.7 | -79.5 | -92 |
| COc1cn(-c2ccc(-n3cccn3)cc2F)nc(-c2ccnn2-c2ccccc2)c1=O [Tak-063] | -1.78 | -1.87 | 0.708 | 0.393 | 114 | 117 | 321 | 303 | 6.28 | 2.94 | 26.4 | 27.7 | 64.8 | 48.7 | 74.2 | 44 | 1.19 | 3.31 | -4.05 | 8.05 | 4.06 | 10.1 | -3.81 | -3.32 | -11 | -14.9 | -15.5 | -20.7 |
| CCOc1ccccc1OCCN[C@H](C)Cc1ccc(OC)c(S(N)(=O)=O)c1 [Tamsulosin] | -0.468 | -0.658 | 0.811 | 1.12 | 8.46 | 14.3 | 26 | 16.1 | -2.07 | 2.87 | 3.42 | 13.4 | 17.3 | 20.7 | 23.6 | 26.5 | 0 | 0 | -2.54 | 9.76 | 7.35 | 14.8 | 4.75 | 4.64 | 1.09 | 4.59 | 2.47 | 0.434 |
| O=c1sn(-c2cccc3ccccc23)c(=O)n1Cc1ccccc1 [Tideglusib] | -1.71 | -1.3 | 0.723 | 0.984 | 5.65 | 6.56 | 17.7 | -11.8 | -2.47 | 7.35 | 4.02 | 2.42 | -2.59 | -0.339 | -4 | -0.265 | 0.036 | 0 | -4.62 | 4.74 | 9.17 | 6.85 | 2.52 | 3.97 | -5.07 | 0.868 | -6.75 | -2.88 |
| Nc1ccc(-c2ccc3ncc4ccc(=O)n(-c5cccc(C(F)(F)F)c5)c4c3c2)cn1 [Torin 2] | -0.979 | -0.723 | 1.71 | 1.79 | 116 | 129 | 180 | 16.9 | 83.4 | 96.5 | 38.8 | 34.7 | 76.3 | 50.7 | 89.8 | 47.4 | 4.68 | 29.7 | 97.2 | 96 | 7.66 | 15.1 | -0.268 | 1.3 | -8.49 | -9.72 | -12.1 | -16.1 |
| COc1cc2c(cc1OC)-c1c/c(=N\c3c(C)cc(C)cc3C)n(C)c(=O)n1CC2 [Trequinsin hydrochloride] | -1.81 | -1.99 | 1.55 | 1.58 | 102 | 120 | 192 | 73.7 | -1.54 | 27.5 | 33.3 | 28.3 | 76.1 | 48.1 | 76.6 | 44 | 0.036 | 0.36 | 11.1 | 40.3 | 8.14 | 16.2 | -3.16 | -4.39 | -11.3 | -17.8 | -12.7 | -22.8 |
| O.O.O.OO.OO.[K+].[OH-].[V].c1cnc2c(c1)ccc1cccnc12 [bpV(phen)] | -0.0835 | -0.163 | 1.06 | 1.79 | 16.4 | 21 | 17.7 | 12.9 | 34.3 | 34.7 | 6.92 | 8.6 | -1.94 | -6.75 | 3.08 | -21.9 | 0.793 | 2.7 | 28.8 | – | 3.97 | 14.8 | 1.25 | 3.48 | -3.57 | -2.96 | -4.6 | -7.01 |
| N=C(N)Nc1nc(-c2ccc(Cl)cc2)cs1 [n-[4-(4-Chlorophenyl)-1,3-thiazol-2-yl]guanidine] | -0.638 | -0.59 | 1.42 | 1.64 | 15.2 | 21.5 | 17.5 | 17.3 | 9.82 | 14.3 | 9.51 | 8.48 | 24 | 14.5 | 19.1 | 31 | 0 | 0.108 | 3.6 | -2.59 | 10.1 | 17 | 0.678 | 2.58 | 1.9 | -3.38 | -0.743 | 0.262 |
